The target of assay [1] is T1, eIF4AI (Homo sapiens, UniProt P60842).
T1 construct: The entire ORF of human eIF4AI was ligated in-frame into the BamHI and HindIII sites of the pET-28a expression vector; 6XHis (N); made in house; host or cells: E. coli BL21(DE3)
The experiment in a line: ATP-dependent RNA helicase activity of 6XHis-eIF4AI. The format is biochemical. The procedure:
(§1) Recombinant proteins. The entire ORF of human eIF4AI was ligated in-frame into the BamHI and HindIII sites of the pET-28a expression vector after PCR amplification from HeLa cells. Protein was produced in BL21(DE3) E. coli cultured in LB medium by induction with 1 mM IPTG for 6 h at 37° C. Cells were lysed by sonication and protein was purified using Ni-NTA resin as described by the manufacturer. For pET(His6-eIF4B), induction conditions were for 72 h at 16° C. Purification included a 1 ml Heparin column with a linear KCl gradient (50-500 mM).
(§2) ATPase and Helicase. ATPase activity was performed as described (Korneeva et al., 2005) with minor modifications. Reactions contained 2.5% DMSO, 6XHis-eIF4AI concentration was 0.56 μM, and reaction time was 10 min at 37° C. in buffer: 20 mM Tris-HCl, pH 7.5, 0.5 mM MgCl2, 100 mM KCl, 2 mM DTT, 0.1% (v/v) Tween 20, 10% (v/v) glycerol, 1 mg/ml BSA, and reactions were supplemented with 3-5 μCi of [γ-^32P]-ATP (6000 Ci/mmol). Saturating poly(U) concentrations were 1239 μM (nucleotides/20). Released phosphate was visualized on 15% native TBE polyacrylamide gels followed by autoradiography of wet gels (30 min exposure). Film was aligned with gels and spots were excised and ^32P levels were quantified by scintillation counting. Km and Vmax were determined by curve fitting. […]

Assay [2] deals with T1, eIF4AI. Kind of assay: RNA-dependent ATPase activity of recombinant 6XHis-eIF4AI. The format is biochemical. As to conditions: saturating poly(U) RNA. The procedure:
as §1, §2

For the next assay, the system named is 293T cells. Kind of assay: cellular polyribosome profiles. The settings on record: 30 min treatment. Type of assay: cell-based. The procedure: Cellular polyribosome profiles. 293T cells were treated as indicated for 30 min. Cells were washed twice with ice-cold PBS and pipetted for 5 min in 500 μl of chilled TMK100 buffer (20 mM Tris-HCl pH 7.4, 5 mM MgCl2 100 mM KCl, 2 mM DTT, 1% Triton X-100 and 100 U/ml RNAsin in DEPC water). After clearing at 10,000×g (10 min) at 4° C., the supernatant (S10) was layered onto 11 ml, 15-45% linear sucrose gradient containing 20 mM HEPES pH 7.4, 100 mM KCl, 5 mM MgCl2 and 2 mM DTT. Ultracentrifugation at 40,000 rpm for 1.5 h at 4° C. was performed in a suitable rotor. Fractions were collected from the top of the gradient by injection of Flurinert FC-40 from bottom of centrifuge tube. Gradient profiles were monitored at 254 nm. For immunoblotting, 7 mg of total protein were processed as described above, followed by collection of 500 μl fractions were collected from the top. 100 μl aliquots of each were boiled in SDS sample buffer, followed by SDS-PAGE and immunoblotting.

Assay [3] deals with HCV IRES-mediated translation. Kind of assay: in vitro translation in RRL, HCV IRES cistron. Type of assay: biochemical, rabbit. The settings on record: 100 nM. The procedure:
In vitro Translation and Transcription. pSP/(CAG)33/FF/HCV/Ren·pA51 and pKS/FF/EMC/Ren were linearized by BamHI, then purified by phenol:chloroform extraction and ethanol precipitation, and dissolved in water. pSP/(CAG)33/FF/HCV/Ren·A51 and pKS/FF/EMC/Ren were individually transcribed using a large scale RNA production system in the presence of m7Gppp cap analog followed by incubation with DNase as described by the manufacturer. Resulting RNA was purified using a kit as described by the manufacturer. Translation was performed using a rabbit reticulocyte lysate system as per instructions. Briefly, 200 ng of purified RNA was combined in a 20 μl reaction containing 10 μl RRL, 0.2 μl each of minus Met and minus Leu amino acid mixtures, 70 mM KCl, 2 mM DTT, 1× translation buffer, and 10 units of RNasin. Compounds or DMSO were added to a final DMSO concentration of 2%. Reactions were incubated at 30° C. for 1.5 h, then 5 μl of the reaction mixture was assayed for luciferase activity as per instructions of luciferas reporter assay system.

For assay [4], the system named is HeLa cells. Kind of assay: cell proliferation assay, HeLa cells. The format is cell-based. The procedure: Cell Culture and transient overexpression. HeLa, RKO, and 293T cells were cultured in DMEM (10% FBS), and Hela S3 and MCF-7 cells in RPMI1640 (10% FBS) in a water jacket cell culture incubator with 5% CO2. Transient transfection was performed using kit as described by the manufacturer. Ectopic overexpression of indicated proteins was performed using pSG5-myc-STRAP, pSG5-eIF4AI, and pcDNA-Flag-4B(wt)
Cell Proliferation Assay. 1×10^5 of indicated cells in each well of a 96-well plate were treated with indicated compounds for 24 h followed by addition of 0.11 μCi of [^3H]-thymidine (6.7 Ci/mmol) per well for 6 h, followed by harvesting to GF/C filtermats using a cell harvester. Filtermats were air-dried and scintillation counted. IC50s were determined from quadruplicate data readings and curve-fitting analysis.

Assay [5] concerns HeLa cells. Type of assay: cell-based.

T1 sequence (P60842 whole entry): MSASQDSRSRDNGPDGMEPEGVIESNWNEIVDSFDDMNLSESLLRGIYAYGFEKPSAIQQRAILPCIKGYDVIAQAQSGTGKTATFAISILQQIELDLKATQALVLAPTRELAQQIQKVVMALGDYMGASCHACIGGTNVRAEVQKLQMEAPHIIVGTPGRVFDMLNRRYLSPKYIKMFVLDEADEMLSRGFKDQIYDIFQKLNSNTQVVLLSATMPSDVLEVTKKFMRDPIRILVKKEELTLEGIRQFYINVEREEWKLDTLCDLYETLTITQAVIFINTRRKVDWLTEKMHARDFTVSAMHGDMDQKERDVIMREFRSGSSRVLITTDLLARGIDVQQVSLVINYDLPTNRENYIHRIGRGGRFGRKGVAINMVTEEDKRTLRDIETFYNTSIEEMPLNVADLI

In the case of `CC(/C=C/C(C)=C/[C@@H]1Cc2nc(cs2)CCCCC(=O)O[C@@H](C)C/C(C)=C/C=C\C(=O)O1)=C\CN(C)C` [compound 3, desmethyl, desamino-pateamine A], on eIF4AI [1] (in the presence of 6XHis-4B), the “effect on helicase activity of eIF4A and 4B” value is given as “further stimulated”. For the same molecule, the “effect on ATP-dependent RNA helicase activity of eIF4AI” value on eIF4AI [1] (with ATP) is reported as “dramatically increased”. Also, at eIF4AI [2], the “effect on Km ATP” value was “significant decrease” and the effect on kcat entry was “marginally increased”.
For the molecule `CC(/C=C/C(C)=C/[C@@H]1Cc2nc(cs2)[C@@H](C)C[C@@H](N)CC(=O)O[C@@H](C)C/C(C)=C/C=C\C(=O)O1)=C\CN(C)C` [Pat A (1), Pateamine A], the “effect on polysome profile” value in the assay on 293T cells was “depletion of polysomes”. The “inhibition of HCV IRES-mediated (eIF4A-independent) translation” value in assay [3] is “not inhibited”. For the same molecule, the “reversibility of antiproliferative effect” value in the assay with HeLa cells [4] (HeLa cells (FIG. 13)) is reported as “irreversible”. The “sensitivity on overexpression of STRAP” value in the assay with HeLa cells [4] (HeLa cells overexpressing STRAP) is listed as “did not alter sensitivity”. In the assay on HeLa cells [4] (HeLa cells overexpressing eIF4AI vs empty vector), the “increase in IC50 on overexpression of eIF4AI” value was 5 fold. In addition, the stress granule formation entry in the assay with HeLa cells [5] is reported as “capable of inducing stress granule formation”.

For the origin of these results see patent US8841285B2, “Potent immunosuppressive agents, derivatives and uses” (priority 2002, dated 2014).
